The source of these data is patent US5532372A, “Imide derivatives, and their production and use” (Sumitomo Pharmaceuticals Company, Ltd., priority 1990, dated 1996).

A word on the inhibition: it is the share of the control response that was lost under treatment. By ED50 is commonly meant the dose at which the effect has come halfway, by size or by number of responders.

One series addresses T1, dopamine D2 receptor (Rattus norvegicus, UniProt P61169).
T1 construct: from tissue; host or cells: rat corpus striatum, membrane fractions
The series is described as follows: Dopamine D2 receptor binding assay (in vitro), [3H] raclopride. As to conditions: at the concentration of 0.01 μM; Table 3; read-out: Antipsychotic activity (% inhibition), inhibition of [3H] raclopride binding to D2 receptors.

For a further series, the system named is mice. The series is described as follows: Anti-climbing activity (in vivo), climbing behavior induced by apomorphine in mice. On the set-up: species or system mice (ddY strain male). The settings on record: Mus musculus, 1 h, read-out: ED50 (50% suppressive dose) of climbing behavior. The text has this:
(ii) Anti-climbing activity (in vivo)
This activity is examined through the anti-climbing behavior test, i.e. the test for suppressing the climbing behavior induced by apomorphine in mice.
A designed amount of the test compound is orally administered to several groups of ddY strain male mice (bodyweight, 20 to 25 g; one group, 5 mice), and each of the animals is placed in an individual column cage of 12 cm in diameter and 14 cm in height having metal poles (each pole, 2 mm in diameter) vertically installed and arranged along the periphery with intervals of 1 cm. After 60 minutes, apomorphine (1.0 mg/kg) is subcutaneously injected, and the behavior is observed during 10 to 20 minutes.
0 All the paws are on the floor
1 only forepaws seize the pole of the cage
2 All the paws seize the pole of the cage;
climbing behavior observed discontinuously
3 Continuous climbing behavior observed

The nature of series [1]: Catalepsy inducing activity (extrapyramidal side-effect). On the set-up: species or system male mice. As to conditions: mouse, in vivo; oral, one hour later, mice; Table 5. The text has this: A designated amount of the test compounds is orally administered to male mice, and one hour later a pair of forepaws are forcedly hanged on an iron pipe (diameter, 2.5 mm) horizontally set at a height of 5 cm. At least one cataleptic state of more than 30 second per three trials is regarded as positive.

Another series in a line: in vivo. As to conditions: mouse, po.
The mark [2] stands for this setting: oral, 60 minutes before apomorphine (1.0 mg/kg s.c.), mice, Table 4.

Read-outs that look alike come from different tables or passages of the source. Some results are limits rather than exact numbers.

T1 sequence (P61169 whole entry): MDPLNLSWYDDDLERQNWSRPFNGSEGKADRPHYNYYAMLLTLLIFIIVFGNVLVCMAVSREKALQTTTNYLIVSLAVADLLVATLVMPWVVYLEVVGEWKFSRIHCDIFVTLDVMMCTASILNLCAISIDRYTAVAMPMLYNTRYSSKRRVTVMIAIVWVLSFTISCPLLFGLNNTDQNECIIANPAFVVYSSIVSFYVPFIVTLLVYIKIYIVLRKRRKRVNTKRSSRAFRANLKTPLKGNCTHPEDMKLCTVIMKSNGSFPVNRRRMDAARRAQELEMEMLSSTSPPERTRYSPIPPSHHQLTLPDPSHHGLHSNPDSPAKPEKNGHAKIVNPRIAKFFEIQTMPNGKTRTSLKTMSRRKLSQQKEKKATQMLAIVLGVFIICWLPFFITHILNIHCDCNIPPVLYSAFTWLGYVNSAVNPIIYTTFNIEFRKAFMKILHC

As to `O=C1[C@@H]2[C@H]3CC[C@H](C3)[C@@H]2C(=O)N1C1CCCC(CN2CCN(c3nsc4ccccc34)CC2)C1` (stereo partly shown) [Compound No. 106], the inhibition at 0.01 µM at dopamine D2 receptor was 90%.

For `O=C1[C@H]2CCCC[C@H]2C(=O)N1C[C@@H]1C[C@H]1CN1CCN(c2nsc3ccccc23)CC1` (relative stereo) [Compound No. 107], on dopamine D2 receptor, the inhibition at 0.01 µM was 71%. Moreover, the ED50 in the series with mice (setting [2]) was determined as 26.5 mg/kg.

Consider `O=C(c1ccc(F)cc1)C1CCN(C[C@@H]2C[C@H]2CN2C(=O)[C@H]3CCCC[C@H]3C2=O)CC1` (relative stereo) [compound 161], for which, on dopamine D2 receptor, the inhibition at 0.01 µM came to 24%.

For `O=C1[C@@H]2[C@H]3CC[C@H](C3)[C@@H]2C(=O)N1C[C@@H]1C[C@H]1CN1CCN(c2ncccn2)CC1` (relative stereo) [compound 163], at dopamine D2 receptor, the inhibition at 0.01 µM is 11%.

On to `CN(C)CCCN1c2ccccc2Sc2ccc(Cl)cc21` [Chlorpromazine, reference compound], for which the ED50 in the series on mice (po) stood at 4.2 mg/kg. The ED50 at 1 h in series [1] was determined as 18 mg/kg.

With `O=C(CCCN1CCC(O)(c2ccc(Cl)cc2)CC1)c1ccc(F)cc1` [Haloperidol, reference compound], in the series on mice (setting [2]), the ED50 worked out at 0.67 mg/kg. For the same compound, the ED50 at 1 h in series [1] was 3.1 mg/kg; in the series “in vivo” it was 4.1 mg/kg.

Take `O=C1[C@@H]2[C@H]3CC[C@H](C3)[C@@H]2C(=O)N1C[C@@H]1CCCC[C@H]1CN1CCN(c2nsc3ccccc23)CC1` (relative stereo) [Compound No. 101]: the ED50 in the series on mice (setting [2]) came out at 10.3 mg/kg. Moreover, the values for the ED50 at 1 h (in series [1]; in “in vivo”) were 747 mg/kg and greater than 1000 mg/kg, respectively.
